Experimental data as given in article PMC11636681, “Pharmacokinetics and pharmacodynamics of antibacterial peptide NZX in Staphylococcus aureus mastitis mouse model” (Applied Microbiology and Biotechnology, 2024).
Marks after values point to notes of the source that are not given here. Positions of bridges follow the written chain, without caps; N, C: chain ends. Residues, ends and D or L forms follow the SMILES beside them.

Key:
[1] = Stability of NZX in mammary gland tissue homogenate; assay type: in vitro ADME; details: mouse, 100 μg/mL in mammary gland tissue homogenate, 37 °C, SPE then HPLC–UV 280 nm, mean peak area / initial value, read-out: residual amount of NZX in mammary tissue homogenate
Experimental: (§1) A 0.5 g of mammary tissue or milk were weighed, homogenized, and transferred to a 10 mL polypropylene centrifuge tube, respectively, extracted sequentially by adding into a 3 mL of 0.1 M of McFarland buffer and 1% trichloroacetic acid (TCA), and cleaned by a C18 solid-phase extraction (SPE) cartridge (Oasis MAX 3 cc 60 mg and Oasis HLB 3 cc 60 mg, respectively, Waters, USA). Afterwards, a 2 mL of 45% acetonitrile with 2% formic acid and 3 mL of 45% acetonitrile were used to elute the columns, respectively, the collected eluents were freeze-dried and dissolved in 200 µL of deionized water and filtered by a […] sterile filter membrane before the analysis of high-performance liquid chromatography-ultraviolet (HPLC–UV). The HPLC–UV with a C18 reverse-phase column (ZORBAX Eclipse Plus C18 4.6 mm × 250 mm, 5 µm) conditions for detecting NZX were as follows: the mobile phase consisted of A: 0.1% trifluoroacetate […] in acetonitrile and B: 0.1%TFA in water; the injection volume was 40 μL; the wavelength of UV detector was 280 nm; flow rate was 1.0 mL/min; the column temperature was 35 °C, and the elution was conducted with a linear gradient of 20–45% mobile phase A for 16 min. The linear relationship, limits of detection (LOD), limits of quantitation (LOQ), accuracy and precision were determined by adding the known concentrations of NZX into the extracted blank matrix of mammary gland. Each concentration was conducted three times.
(§2) A 100 μg/mL of NZX was suspended in mammary gland tissue homogenate or milk, respectively, and then incubated at 37 °C for 0, 8, 16 and 24 h, respectively. Afterwards, samples were pretreated and quantified as the above methods. The results were expressed as a ratio of the mean peak area measured at different times divided by the mean value of the initial value.

three S. aureus strains = assay: Mouse mastitis model, histopathological analysis and scoring of mammary tissues; assay type: in vivo; details: mice infected with the three S. aureus strains, 100 μg/gland
Description: The 7 to 8-weeks old ICR mice (80 females, 40 males) were housed in independent ventilated cages, and feed with autoclaved laboratory food and water. Female mice in heat were put into the cage of males (females:males, 2:1) overnight and checked for vaginal plugs at the following morning to induce pregnancy. ICR-lactating mice were used at 6 to 8 days after the birth of the offspring. The mouse mastitis model was established as previously described (Li et al. [2017]). Mice were randomly divided into nine groups: NC group (uninfected group), PC group (infected but without treatment), NZX groups (25, 50, 100, 200 and 400 μg/gland, respectively), lincomycin group (100 μg/gland), and ceftiofur group (100 μg/gland). Each experimental group has six independent experiments with three mice. Specially, the pups were removed 1 h before the intramammary injection of both L4 (on the left) and R4 (on the right) abdominal mammal glands. […]
After mouse sacrifice, one part of mammary tissue was taken for bacterial count, and the other part was used for the histopathological analysis. […] The bacterial number on each plate was counted and the results were expressed as Log10 CFU per gram of mammary tissues. […]

S. aureus E48 = details: 1 × 10^5 CFU/mL, 16–18 h, 37 °C, value marked a, already published, ref Zheng et al. [2022]; cited from earlier work
Description: Table 1 The MICs, MBCs and MPCs of NZX and antibiotics against S. aureus strains (μM) | column: S. aureus E48 / MIC

S. agalactiae = details: against S. agalactiae; ref Wu et al. [2022]; cited from earlier work
Description: MPCs and PAEs were also important parameters to allow antimicrobial dosage regimens to be developed in a much more scientific approach to reduce treatment cost, and the incidences of drug resistant bacteria and avoid unnecessary drug toxicity (Mackenzie and Gould [1993]).

S. aureus ATCC 25923 = details: 1 × 10^5 CFU/mL, 16–18 h, 37 °C, value marked a, already published, ref Zheng et al. [2022]; cited from earlier work
Description: Table 1 The MICs, MBCs and MPCs of NZX and antibiotics against S. aureus strains (μM) | column: S. aureus ATCC 25923 / MIC

Stability of NZX in milk = assay type: in vitro ADME; details: 100 μg/mL in milk, 37 °C, SPE then HPLC–UV 280 nm, mean peak area / initial value, read-out: retention rate in milk
Experimental: as §1, §2

[2] = Pharmacokinetics in mouse mammary gland after intramammary administration; assay type: in vivo
Experimental: as §1
A pharmacokinetic assessment of a single dose of NZX at 100 μg/gland was carried out using 36 individual healthy lactating mice following intramammary administration (Wang et al. [2021]). Mammary tissues were harvested at 0.083, 0.5, 1, 2, 3, 4, 6, 9, 12, 16, 20 and 24 h with three mice (six mammary in total) at each time point. The collected samples were then placed into 2 mL eppendorf tubes and stored at − 80 °C before the content determination of NZX in mammary gland by HPLC–UV. Briefly, a portion of the mammary gland tissues (0.5 g) was weighed in 2 mL eppendorf tubes, homogenized for 20 min (50 HZ and 4 °C) in 0.5 mL of PBS solution, and pretreated and purified by a MAX cartridge as described above. The pharmacokinetic parameters of NZX in mammary gland tissues were calculated by non-compartmental model using WinNonlin Phoenix version 8.1 (Pharsight Co., Mountain View, CA, USA).

[3] = mouse mammary tissue, single 100 μg/gland intramammary, healthy lactating mice, HPLC–UV, non-compartmental model

CC[C@H](C)[C@@H]1NC(=O)[C@H](CO)NC(=O)[C@H](CCCCN)NC(=O)[C@@H]2CSSC[C@@H](C(=O)N[C@@H](Cc3ccc(O)cc3)C(=O)O)NC(=O)[C@H](CCCCN)NC(=O)[C@@H]3CSSC[C@H](NC(=O)[C@H](CCC(N)=O)NC(=O)[C@H]([C@@H](C)CC)NC(=O)[C@H](CC(=O)O)NC(=O)[C@H](CC(=O)O)NC(=O)[C@H](CCC(=O)O)NC(=O)[C@H](CO)NC(=O)[C@H](Cc4c[nH]c5ccccc45)NC(=O)[C@@H]4CCCN4C(=O)CNC(=O)[C@H](CC(N)=O)NC(=O)[C@@H](NC(=O)CNC(=O)[C@H](Cc4ccccc4)NC(=O)CN)CSSC[C@H](NC(=O)[C@H](Cc4ccc(O)cc4)NC(=O)CNC(=O)CNC(=O)[C@H](CCCCN)NC(=O)[C@H](Cc4ccc(O)cc4)NC(=O)CNC(=O)[C@H](CCCCN)NC1=O)C(=O)N[C@@H](C)C(=O)N[C@@H](CCCNC(=N)N)C(=O)NCC(=O)NCC(=O)N[C@@H](Cc1ccccc1)C(=O)N[C@@H](C(C)C)C(=O)N3)C(=O)N[C@@H](Cc1c[nH]cn1)C(=O)N[C@@H](CC(N)=O)C(=O)N[C@@H](Cc1c[nH]cn1)C(=O)N2 [NZX] (H-GFGCNGPWSEDDIQCHNHCKSIKGYKGGYCARGGFVCKCY-OH; disulfide 4-30, 15-37, 19-39; N-terminus and C-terminus assumed)
remaining at 8 h, 100 μg/mL ([1]; 8 h): 72.2%
remaining at 16 h, 100 μg/mL ([1]; 16 h): 48.4%
remaining at 24 h, 100 μg/mL ([1]; 24 h): 47.9%
inflammatory symptoms of mammary tissue (H&E histology) (three S. aureus strains; 24 h after treatment): obviously improved
pathological scores of mammary tissues (three S. aureus strains; compared with the PC group): significantly decreased
MIC (S. aureus E48): 0.23^a μM
MPC (S. agalactiae): 1.82 µM
MIC (S. aureus ATCC 25923): 0.46^a μM
remaining at 8 h, 100 μg/mL (Stability of NZX in milk; 8 h): 103%
remaining at 16 h, 100 μg/mL (Stability of NZX in milk; 16 h): 91.8%
remaining at 24 h, 100 μg/mL (Stability of NZX in milk; 24 h): 85.4%
AUC, area under the concentration time curve from time 0 to 24 h [2, 3]: 391 µg·h/g
Cmax, peak concentration [2, 3]: 32.49 µg/g
Tmax, peak time [2, 3]: 0.5 h
T1/2, terminal elimination half-life ([2]; mouse mammary tissue, single 100 μg/gland intramammary, healthy lactating mice, HPLC–UV, non-compartmental model, three mice (six glands) per time point): 35.11 h
tissue distribution after administration by milk duct ([2]; mouse, no detection in serum and organs (data not shown)): only distributed into mammary gland tissues
